Experimental data as given in patent US20210032291A1, “Compstatin Analogs With Improved Pharmacokinetic Properties” (The Trustees of the University of Pennsylvania, priority 2011, published 2021).
≈ marks a conversion by molar mass, not a printed value. Where two headings read alike, the source gives them in different places. Bridge positions count the residues as written; N and C are the ends. Square brackets hold non-standard residues; d marks the D form. Peptide text beside a SMILES is read from it. Trp(1-Me) = Cn1cc(C[C@H](N)C(=O)O)c2ccccc21; NMeI = CC[C@H](C)[C@H](NC)C(=O)O; Sar = CNCC(=O)O

Columns and labels:
[1] = Solubility in WFI and DPBS; UPLC C18 retention time as hydrophobicity; conditions: for solubility at 5 min: pH 7.4; for Hydrophobicity Retention Time: UPLC analysis on a C18 column
Protocol: Approximately 5 mg of each peptide (acetate form) was weighed out into separate LoBind Eppendorf tubes and 50 μL water for injection (WFI) was added to each tube. Each sample was centrifuged at 13000 rpm for 2 min and diluted for measuring the optical density (OD) at 280 nm using a NanoDrop 2000 spectrophotometer (ThermoScientific, Wilmington, Del.). Each concentrated sample was diluted 1:20 into Dulbecco's phosphate buffered saline (DPBS, without potassium and calcium; Invitrogen, Carlsbad, Calif.). The samples were monitored for precipitation, and each sample was vortexed for 5 min and centrifuged at 13000 rpm for 2 min. The OD of each DPBS supernatant was measured to determine peptide concentration at saturation.
In addition, the ultra performance liquid chromatography (UPLC) retention time of these peptides on a C18 column was measured to reflect their apparent relative hydrophobicity (Table 3).

[2] = system: classical pathway of complement; assay: ELISA inhibition of classical pathway complement activation; assay type: biochemical; conditions: read-out: IC50, peptide concentration to reach 50% inhibition of classical pathway complement activation; Table 1
Protocol: Inhibition of complement activation. The ability of the compstatin analogs to inhibit the activation of the classical pathway of complement was assessed by ELISA as described elsewhere (Katragadda et al., 2006, supra; Mallik et al., 2005, supra). The percent inhibition was plotted against the peptide concentration, and the resulting data set was fitted to the logistic dose-response function using Origin 8.0 software. IC50 values were obtained from the fitted parameters that produced the lowest χ2 value. Each analog was assayed at least three times.

C3b [3] = molecular target: T1, C3b (Homo sapiens, UniProt P01024); conditions: value from previous publication (WO2010/127336), cited from earlier work
T1 construct: Biotinylated C3b was captured site-specifically on a streptavidin chip

C3b [4] = molecular target: T1, C3b; assay: SPR kinetic analysis of binding to immobilized C3b (Biacore, single cycle kinetics); conditions: for ka: association rate / Kd / koff: Table 1, N-terminal analogs; for Kd: read-out: KD: binding constant from SPR; for koff: read-out: kd: dissociation rate
Protocol: SPR analysis. The interaction of the compstatin analogs with C3b was characterized using a Biacore 3000 instrument (GE Healthcare, Corp., Piscataway, N.J.). The running buffer was PBS, pH 7.4 (10 mM sodium phosphate, 150 mM NaCl) with 0.005% Tween-20. Biotinylated C3b was captured site-specifically on a streptavidin chip at about 3000 and 5000 RU density; two untreated flow cells were used as reference surface. For kinetic analysis, sets of five increasing concentrations of a particular compound were injected over the chip surface one after the other in a single cycle. […] Processed biosensor data were globally fitted to a 1:1 Langmuir binding model (kindly provided by GE Helthcare), and the equilibrium dissociation constant (KD) was calculated from the equation KD=kd/ka. Each assay was performed at least twice.

[5] = Dulbecco's phosphate buffered saline

T1 sequence (P01024 23-667 limits assumed): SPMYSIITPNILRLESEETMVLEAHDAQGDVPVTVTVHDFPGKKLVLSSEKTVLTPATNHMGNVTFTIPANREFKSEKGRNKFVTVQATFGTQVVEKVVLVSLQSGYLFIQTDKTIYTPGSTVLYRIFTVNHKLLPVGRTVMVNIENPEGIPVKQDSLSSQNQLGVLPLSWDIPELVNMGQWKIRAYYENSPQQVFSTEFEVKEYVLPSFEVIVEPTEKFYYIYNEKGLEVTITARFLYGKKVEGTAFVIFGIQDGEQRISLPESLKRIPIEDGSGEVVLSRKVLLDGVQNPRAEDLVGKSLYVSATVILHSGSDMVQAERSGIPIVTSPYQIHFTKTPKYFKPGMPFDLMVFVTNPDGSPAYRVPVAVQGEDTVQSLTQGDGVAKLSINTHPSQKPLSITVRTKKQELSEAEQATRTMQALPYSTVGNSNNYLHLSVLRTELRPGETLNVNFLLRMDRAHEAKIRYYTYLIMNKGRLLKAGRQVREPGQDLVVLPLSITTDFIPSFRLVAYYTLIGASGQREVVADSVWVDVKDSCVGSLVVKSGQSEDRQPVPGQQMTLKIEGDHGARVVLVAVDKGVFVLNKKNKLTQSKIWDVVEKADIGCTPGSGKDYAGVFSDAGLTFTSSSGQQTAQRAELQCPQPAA
T1 sequence (P01024 749-1663 partner limits assumed): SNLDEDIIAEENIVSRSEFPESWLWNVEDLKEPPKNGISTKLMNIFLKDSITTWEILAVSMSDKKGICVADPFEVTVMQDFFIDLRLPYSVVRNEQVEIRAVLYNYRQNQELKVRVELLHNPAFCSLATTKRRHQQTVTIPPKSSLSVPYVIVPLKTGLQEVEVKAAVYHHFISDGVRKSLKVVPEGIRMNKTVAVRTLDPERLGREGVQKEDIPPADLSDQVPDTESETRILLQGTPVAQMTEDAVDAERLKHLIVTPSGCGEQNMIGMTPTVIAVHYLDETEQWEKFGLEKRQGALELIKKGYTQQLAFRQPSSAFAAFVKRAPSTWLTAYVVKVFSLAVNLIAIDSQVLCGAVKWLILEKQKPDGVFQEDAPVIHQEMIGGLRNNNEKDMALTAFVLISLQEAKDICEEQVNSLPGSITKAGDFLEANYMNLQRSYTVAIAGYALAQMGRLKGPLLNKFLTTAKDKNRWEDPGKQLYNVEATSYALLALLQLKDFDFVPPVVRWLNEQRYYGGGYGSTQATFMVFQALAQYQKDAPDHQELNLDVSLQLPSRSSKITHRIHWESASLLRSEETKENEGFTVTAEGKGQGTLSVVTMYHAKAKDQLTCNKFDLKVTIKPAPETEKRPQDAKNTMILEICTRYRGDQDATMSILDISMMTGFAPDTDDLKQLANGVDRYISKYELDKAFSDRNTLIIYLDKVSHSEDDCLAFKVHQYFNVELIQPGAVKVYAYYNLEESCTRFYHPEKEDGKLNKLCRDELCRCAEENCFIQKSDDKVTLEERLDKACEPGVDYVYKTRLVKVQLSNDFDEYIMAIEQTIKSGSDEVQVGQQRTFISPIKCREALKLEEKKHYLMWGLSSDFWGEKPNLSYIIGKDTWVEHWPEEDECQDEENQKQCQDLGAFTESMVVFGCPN

Structure (SMILES) | IC50 [2] [nM] | ka: association rate (C3b [4]) | Kd (C3b [4]) [nM] | koff (C3b [4]) [s⁻¹] | further results
CC[C@H](C)[C@H](NC(C)=O)C(=O)N[C@H]1CSSC[C@@H](C(=O)N[C@H](C(N)=O)[C@@H](C)O)NC(=O)[C@H](CCCNC(=N)N)NC(=O)[C@H](Cc2c[nH]cn2)NC(=O)[C@H](C)NC(=O)CNC(=O)[C@H](Cc2c[nH]c3ccccc23)NC(=O)[C@H](CC(=O)O)NC(=O)[C@H](CCC(N)=O)NC(=O)[C@H](Cc2cn(C)c3ccccc23)NC(=O)[C@H](C(C)C)NC1=O [4(1MeW), reference compound] | 132 ± 7 | – | – | – | solubility at 5 min [1, 5]: 3500 µg/mL (≈ 2150 µM); Hydrophobicity Retention Time [1]: 5.09 min
CC[C@H](C)[C@H](NC(C)=O)C(=O)N[C@H]1CSSC[C@@H](C(=O)N(C)[C@H](C(N)=O)[C@@H](C)CC)NC(=O)[C@H](CCCNC(=N)N)NC(=O)[C@H](Cc2c[nH]cn2)NC(=O)[C@H](C)NC(=O)CN(C)C(=O)[C@H](Cc2c[nH]c3ccccc23)NC(=O)[C@H](CC(=O)O)NC(=O)[C@H](CCC(N)=O)NC(=O)[C@H](Cc2cn(C)c3ccccc23)NC(=O)[C@H](C(C)C)NC1=O [Cp20, reference compound] | – | – | – | – | ka: association rate (C3b [3]): 1.9 10^6/Ms; kd: dissociation rate (C3b [3]): 4.0 10^−3/s; Kd (C3b [3]; read-out: KD: binding constant from SPR): 2.4 nM; solubility at 5 min ([1]; Dulbecco's phosphate buffered saline (DPBS)): 2700 µg/mL (≈ 1620 µM); Hydrophobicity Retention Time [1]: 5.33 min; Solubility WFI ([1]; water for injection, OD (280 nm) at saturation, acetate form): 13000 µg/mL (≈ 7790 µM)
CC[C@H](C)[C@H](NC)C(=O)N[C@H]1CSSC[C@@H](C(=O)N(C)[C@H](C(N)=O)[C@@H](C)CC)NC(=O)[C@H](CCCNC(=N)N)NC(=O)[C@H](Cc2c[nH]cn2)NC(=O)[C@H](C)NC(=O)CN(C)C(=O)[C@H](Cc2c[nH]c3ccccc23)NC(=O)[C@H](CC(=O)O)NC(=O)[C@H](CCC(N)=O)NC(=O)[C@H](Cc2cn(C)c3ccccc23)NC(=O)[C@H](C(C)C)NC1=O [peptide 1] | 180 ± 17 | 1.3 ± 0.3 10^6/Ms | 18.6 ± 3.5 | 0.0248 ± 0.0073 | Binding affinity by SPR, in words (C3b [4]; compared with Cp40 (peptide 14)): high binding affinity
CC[C@H](C)[C@H](NC(=O)CN)C(=O)N[C@H]1CSSC[C@@H](C(=O)N(C)[C@H](C(N)=O)[C@@H](C)CC)NC(=O)[C@H](CCCNC(=N)N)NC(=O)[C@H](Cc2c[nH]cn2)NC(=O)[C@H](C)NC(=O)CN(C)C(=O)[C@H](Cc2c[nH]c3ccccc23)NC(=O)[C@H](CC(=O)O)NC(=O)[C@H](CCC(N)=O)NC(=O)[C@H](Cc2cn(C)c3ccccc23)NC(=O)[C@H](C(C)C)NC1=O [peptide 2] (H-GICV[Trp(1-Me)]QDW[Sar]AHRC[NMeI]-NH2; disulfide 3-13) | 113 ± 16 | 1.2 ± 0.3 10^6/Ms | 2.5 ± 0.5 | 0.0029 ± 0.0002 | –
CC[C@H](C)[C@H](NC(=O)[C@@H](N)Cc1ccc(O)cc1)C(=O)N[C@H]1CSSC[C@@H](C(=O)N(C)[C@H](C(N)=O)[C@@H](C)CC)NC(=O)[C@H](CCCNC(=N)N)NC(=O)[C@H](Cc2c[nH]cn2)NC(=O)[C@H](C)NC(=O)CN(C)C(=O)[C@H](Cc2c[nH]c3ccccc23)NC(=O)[C@H](CC(=O)O)NC(=O)[C@H](CCC(N)=O)NC(=O)[C@H](Cc2cn(C)c3ccccc23)NC(=O)[C@H](C(C)C)NC1=O [peptide 4] | 72 ± 10 | 2.1 ± 0.3 10^6/Ms | – | – | –
CC[C@H](C)[C@@H](C(N)=O)N(C)C(=O)[C@@H]1CSSC[C@H](NC(=O)[C@H](Cc2c[nH]c3ccccc23)NC(C)=O)C(=O)N[C@@H](C(C)C)C(=O)N[C@@H](Cc2cn(C)c3ccccc23)C(=O)N[C@@H](CCC(N)=O)C(=O)N[C@@H](CC(=O)O)C(=O)N[C@@H](Cc2c[nH]c3ccccc23)C(=O)N(C)CC(=O)N[C@@H](C)C(=O)N[C@@H](Cc2c[nH]cn2)C(=O)N[C@@H](CCCNC(=N)N)C(=O)N1 [peptide 19] (Ac-WCV[Trp(1-Me)]QDW[Sar]AHRC[NMeI]-NH2; disulfide 2-12) | – | 3.8 ± 0.3 10^6/Ms | 0.5 | 0.0017 ± 0.0003 | solubility at 5 min [1, 5]: < 200 µg/mL; solubility ([1]; PBS): < 100 µM
CC[C@H](C)[C@@H](C(N)=O)N(C)C(=O)[C@@H]1CSSC[C@H](NC(=O)CNC(=O)[C@@H](N)Cc2ccc(O)cc2)C(=O)N[C@@H](C(C)C)C(=O)N[C@@H](Cc2cn(C)c3ccccc23)C(=O)N[C@@H](CCC(N)=O)C(=O)N[C@@H](CC(=O)O)C(=O)N[C@@H](Cc2c[nH]c3ccccc23)C(=O)N(C)CC(=O)N[C@@H](C)C(=O)N[C@@H](Cc2c[nH]cn2)C(=O)N[C@@H](CCCNC(=N)N)C(=O)N1 [peptide 20] (H-YGCV[Trp(1-Me)]QDW[Sar]AHRC[NMeI]-NH2; disulfide 3-13) | – | 2.1 ± 0.3 10^6/Ms | 3.5 ± 0.3 | 0.0073 ± 0.0014 | –
